Reference: PubChem BioAssay (NCI)
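The concentration for 50% growth inhibition is given as GI50. TGI marks complete inhibition of growth.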

Columns and labels:
Assay in all cases: DTP human tumour cell line panel, 384-well format
[1] = tested on: 786-0 renal
[2] = tested on: A498 renal
[3] = tested on: A549 NSCLC
[4] = tested on: ACHN renal
[5] = tested on: BT-549 breast
[6] = tested on: CAKI-1 renal
[7] = tested on: CCRF-CEM leukemia
[8] = tested on: COLO 205 colon
[9] = tested on: DU-145 prostate
[10] = tested on: EKVX NSCLC
[11] = tested on: HCC-2998 colon
[12] = tested on: HCT-15 colon
[13] = tested on: HL-60(TB) leukemia
[14] = tested on: HOP-62 NSCLC
[15] = tested on: HOP-92 NSCLC
[16] = tested on: HS 578T breast
[17] = tested on: HT29 colon
[18] = tested on: IGROV1 ovarian
[19] = tested on: K-562 leukemia
[20] = tested on: KM12 colon
[21] = tested on: LOX IMVI melanoma
[22] = tested on: M14 melanoma
[23] = tested on: MALME-3M melanoma
[24] = tested on: MCF7 breast
[25] = tested on: MDA-MB-231 breast
[26] = tested on: MDA-MB-435 melanoma
[27] = tested on: MDA-MB-468 breast
[28] = tested on: MOLT-4 leukemia
[29] = tested on: NCI-H226 lung
[30] = tested on: NCI-H23 lung
[31] = tested on: NCI-H322M lung
[32] = tested on: NCI-H460 NSCLC
[33] = tested on: NCI-H522 lung
[34] = tested on: NCI/ADR-RES ovarian
[35] = tested on: OVCAR-3 ovarian
[36] = tested on: OVCAR-4 ovarian
[37] = tested on: OVCAR-5 ovarian
[38] = tested on: OVCAR-8 ovarian
[39] = tested on: PC-3 prostate
[40] = tested on: RPMI-8226 leukemia
[41] = tested on: RXF 393 renal
[42] = tested on: SF-268 CNS
[43] = tested on: SF-295 CNS
[44] = tested on: SF-539 CNS
[45] = tested on: SK-MEL-28 melanoma
[46] = tested on: SK-MEL-5 melanoma
[47] = tested on: SK-OV-3 ovarian
[48] = tested on: SN12C renal
[49] = tested on: SNB-19 CNS
[50] = tested on: SNB-75 CNS
[51] = tested on: SR leukemia
[52] = tested on: SW-620 colon
[53] = tested on: T-47D breast
[54] = tested on: TK-10 renal
[55] = tested on: U251 glioblastoma
[56] = tested on: UACC-257 melanoma
[57] = tested on: UACC-62 melanoma
[58] = tested on: UO-31 renal

In the case of CNc1nc(-c2ccc3c(N)n[nH]c3c2)cc(N2C[C@@H](C(=O)NC3CCCCC3)CC[C@H]2C)n1, the GI50 [1] is reported as 3.25 µM, the TGI [1] is reported as 13.8 µM and the GI50 [2] is reported as 0.666 µM. It also gave a TGI [2] of 7.16 µM, a GI50 [3] of 3.78 µM and a TGI [3] of 16.2 µM. It also gave a GI50 [4] of 4.99 µM, a TGI [4] of 20.8 µM and a GI50 [5] of 1.72 µM. For the same compound, the TGI [5] was 13.9 µM, the GI50 [6] was 1.61 µM and the TGI [6] was 15.2 µM. For the same compound, the GI50 [7] was 1.04 µM, the TGI [7] was 3.12 µM and the GI50 [8] was 1.56 µM. For the same compound, the TGI [8] was 11 µM, the GI50 [9] was 10.3 µM and the TGI [9] was 22.1 µM. The GI50 [10] was 2.17 µM, the TGI [10] was 15 µM and the GI50 [11] was 2.73 µM. For the same compound, the TGI [11] was 13.9 µM, the GI50 [12] was 2.81 µM and the TGI [12] was 13.9 µM. The GI50 [13] was 1.26 µM, the TGI [13] was 2.85 µM and the GI50 [14] was 7.05 µM. It also gave a TGI [14] of 20.3 µM, a GI50 [15] of 0.99 µM and a TGI [15] of 6.78 µM. For the same compound, the GI50 [16] was 1.33 µM, the TGI [16] was 6.42 µM and the GI50 [17] was 3.45 µM. It also gave a TGI [17] of 18 µM, a GI50 [18] of 2.66 µM and a TGI [18] of 10.1 µM. It also gave a GI50 [19] of 4.88 µM, a TGI [19] of 17.4 µM and a GI50 [20] of 10.1 µM. For the same compound, the TGI [20] was 21.8 µM, the GI50 [21] was 4.8 µM and the TGI [21] was 17.4 µM. For the same compound, the GI50 [22] was 1.7 µM, the TGI [22] was 17.8 µM and the GI50 [23] was 0.157 µM. It also gave a TGI [23] of 2.01 µM, a GI50 [24] of 0.417 µM and a TGI [24] of 2.95 µM. For the same compound, the GI50 [25] was 1.91 µM, the TGI [25] was 16.7 µM and the GI50 [26] was 3.29 µM. The TGI [26] was 16.9 µM, the GI50 [27] was 0.213 µM and the TGI [27] was 0.997 µM. For the same compound, the GI50 [28] was 0.545 µM, the TGI [28] was 1.9 µM and the GI50 [29] was 2.15 µM. It also gave a TGI [29] of 14 µM, a GI50 [30] of 1.86 µM and a TGI [30] of 13.2 µM. It also gave a GI50 [31] of 7.92 µM, a TGI [31] of 20.7 µM and a GI50 [32] of 1.6 µM. The TGI [32] was 13.9 µM, the GI50 [33] was 6.52 µM and the TGI [33] was 19.9 µM. For the same compound, the GI50 [34] was 13.5 µM, the TGI [34] was 26.4 µM and the GI50 [35] was 3.45 µM. It also gave a TGI [35] of 16.7 µM, a GI50 [36] of 2.58 µM and a TGI [36] of 13.3 µM. The GI50 [37] was 1.64 µM, the TGI [37] was 6.52 µM and the GI50 [38] was 9.7 µM. It also gave a TGI [38] of 21.6 µM, a GI50 [39] of 0.877 µM and a TGI [39] of 14.7 µM. It also gave a GI50 [40] of 0.471 µM, a TGI [40] of 3.49 µM and a GI50 [41] of 2.97 µM. It also gave a TGI [41] of 13 µM, a GI50 [42] of 5.21 µM and a TGI [42] of 19.3 µM. For the same compound, the GI50 [43] was 4.81 µM, the TGI [43] was 18.3 µM and the GI50 [44] was 3.52 µM. It also gave a TGI [44] of 15.8 µM, a GI50 [45] of 1.54 µM and a TGI [45] of 12.5 µM. The GI50 [46] was 0.798 µM, the TGI [46] was 2.81 µM and the GI50 [47] was 1.68 µM. For the same compound, the TGI [47] was 12.1 µM, the GI50 [48] was 1.9 µM and the TGI [48] was 15.5 µM. For the same compound, the GI50 [49] was 7.1 µM, the TGI [49] was 20 µM and the GI50 [50] was 1.19 µM. It also gave a TGI [50] of 13.4 µM, a GI50 [51] of 0.475 µM and a TGI [51] of 8.48 µM. It also gave a GI50 [52] of 11.6 µM, a TGI [52] of 24 µM and a GI50 [53] of 0.0787 µM. For the same compound, the TGI [53] was 1.58 µM, the GI50 [54] was 3.15 µM and the TGI [54] was 16.4 µM. For the same compound, the GI50 [55] was 10.4 µM, the TGI [55] was 22.4 µM and the GI50 [56] was 1.62 µM. For the same compound, the TGI [56] was 10.5 µM, the GI50 [57] was 1.93 µM and the TGI [57] was 13.5 µM. It also gave a GI50 [58] of 5.39 µM and a TGI [58] of 19.4 µM.
CC[C@@H](C(=O)[C@@H](C)[C@@H](O)[C@H](C)[C@@H]1O[C@@H]([C@@H](CC)C(=O)O)CC[C@@H]1C)[C@H]1O[C@]2(C=C[C@@H](O)[C@]3(CC[C@@](C)([C@H]4CC[C@](O)(CC)[C@H](C)O4)O3)O2)[C@H](C)C[C@@H]1C was tested, and the GI50 [4] was 0.416 µM, the TGI [4] was 13.6 µM and the GI50 [12] was 0.299 µM. For the same compound, the TGI [12] was 1.19 µM, the GI50 [13] was < 0.01 µM and the TGI [13] was < 0.01 µM. The GI50 [24] was < 0.01 µM, the TGI [24] was 0.278 µM and the GI50 [34] was 0.167 µM. The TGI [34] was 2.11 µM, the GI50 [35] was < 0.01 µM and the TGI [35] was < 0.01 µM. The GI50 [41] was < 0.01 µM, the TGI [41] was < 0.01 µM and the GI50 [48] was < 0.01 µM. For the same compound, the TGI [48] was 1.76 µM, the GI50 [51] was < 0.01 µM and the TGI [51] was < 0.01 µM. It also gave a GI50 [58] of 0.157 µM and a TGI [58] of 0.759 µM.
